This experiment concerns the target T1, mUSP18 (Mus musculus, UniProt Q9WTV6).
T1 construct: (46-368); His-tag (N); made in house
T1 sequence (Q9WTV6 46-368): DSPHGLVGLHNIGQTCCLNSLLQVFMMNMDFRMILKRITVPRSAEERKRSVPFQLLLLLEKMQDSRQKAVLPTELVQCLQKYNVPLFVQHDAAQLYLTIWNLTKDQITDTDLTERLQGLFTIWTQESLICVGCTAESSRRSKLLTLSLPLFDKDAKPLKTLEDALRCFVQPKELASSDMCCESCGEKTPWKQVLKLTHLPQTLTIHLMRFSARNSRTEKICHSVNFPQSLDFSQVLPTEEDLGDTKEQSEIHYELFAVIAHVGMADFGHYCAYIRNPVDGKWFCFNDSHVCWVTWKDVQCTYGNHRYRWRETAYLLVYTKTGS
The experiment in a line: High-throughput screening, ISG15ct-RhoMP, single dose 1.25 µM. Format: biochemical, murine.

The mark [1] stands for this setting: mUSP18 %inhibition, carboxylic acid (CA) building block alone, read-out: %inh CA only.
The mark [2] stands for this setting: mUSP18 %inhibition, carboxylic acid (CA) with coupling reagents DIC/HOBT, read-out: %inh CA + DIC/HOBT.

Like-named read-outs stand apart in the source and are kept apart here.

For `O=C(O)C1CC1` [CA077], the inhibition at 1.25 µM by setting is: under setting [1], -6.84%; under setting [2], -14.4%.
On to `O=C(O)CC1C(=O)Nc2ccccc21` (stereo not shown) [CA078], for which the inhibition at 1.25 µM reads like this: under setting [1], -7.04%; under setting [2], -14.2%.
Taken in the same sequence, the figures for `CC(=O)C(=O)O` [CA079] were -7.45% and -14.4%.
In the same order, the values of `COCC(=O)O` [CA080] are -8.74% and -15.7%.
As for `O=C(O)c1cnccn1` [CA081], the “%inh CA only” value (mUSP18 %inhibition, carboxylic acid (CA) building block alone) is -6.50%. Moreover, for the setting “mUSP18 %inhibition, carboxylic acid (CA) with coupling reagents DIC/HOBT”, the “%inh CA + DIC/HOBT” value is reported as -13.28%.
Consider `Cc1ncc(C(=O)O)s1` [CA082], for which the inhibition at 1.25 µM is, setting by setting: under setting [1], -10.3%; under setting [2], -14.8%.
In the same order, the values of `O=C(O)c1ccc2c(c1)OCO2` [CA083] are -4.98% and -14.2%.
`O=C(O)c1ccc2c(c1)ncn2C1CCCCO1` (stereo not shown) [CA084]: the inhibition at 1.25 µM reads like this: under setting [1], -10.2%; under setting [2], -14.9%.
For the compound `CN1CCN(c2ccc(C(=O)O)cc2)CC1` [CA085], the inhibition at 1.25 µM runs as follows: under setting [1], 5.37%; under setting [2], -9.79%.
Regarding `O=C(O)c1ccc(N2CCOCC2)cc1` [CA086], the inhibition at 1.25 µM is, setting by setting: under setting [1], 2%; under setting [2], 15.8%.
For the compound `CN1CCC(C(=O)O)CC1` [CA087], the inhibition at 1.25 µM reads like this: under setting [1], -3.93%; under setting [2], -14.3%.
Regarding `CC(=O)N1CCC(C(=O)O)CC1` [CA088], the inhibition at 1.25 µM was -2.57% under setting [1] and -12.6% under setting [2].
Taken in the same sequence, the figures for `O=C(O)C1CCN(c2ncccn2)CC1` [CA089] were -4.93% and -12.3%.
As for `O=C(O)c1nc(N2CCCC2)ncc1Cl` [CA090], the inhibition at 1.25 µM turned out to be 23.1% under setting [1] and 14.2% under setting [2].
In the same order, the values of `O=C(O)C(Cc1c[nH]cn1)NS(=O)(=O)c1ccc(Cl)cc1` (stereo not shown) [CA091] are 20.4% and 8.3%.
`O=C(O)Cc1csc(-c2cnccn2)n1` [CA092]: the inhibition at 1.25 µM reads like this: under setting [1], 15.3%; under setting [2], 13.1%.
On to `O=C(O)CCN(Cc1ccccc1)S(=O)(=O)c1c(Cl)cccc1Cl` [CA093], for which the inhibition at 1.25 µM under setting [1] came to 18.6% and the inhibition at 1.25 µM under setting [2] came out at 13.9%.
As for `O=C(O)c1ncoc1-c1cccs1` [CA094], the inhibition at 1.25 µM is 14.4% under setting [1] and 10.3% under setting [2].
On to `O=C(O)c1cccc(S(=O)(=O)NCc2cccs2)c1` [CA095], for which the inhibition at 1.25 µM reads like this: under setting [1], 14.6%; under setting [2], 10.3%.
For the compound `Cc1ccc(-n2c(C)ccc2C)c(C(=O)O)c1` [CA96], the inhibition at 1.25 µM came out at 74.4% under setting [1] and 60% under setting [2]. For the same compound, the “inhibition of mUSP18 by individual CA's and coupling reagents” value (screened with and without DIC/HOBt) is “could inhibit mUSP18”.
For the compound `O=C(O)Cc1csc(COc2ccc(Cl)cc2)n1` [CA097], the inhibition at 1.25 µM runs as follows: under setting [1], 15.8%; under setting [2], 12.5%.
In the same order, the values of `O=C(O)Cc1cc(-c2ccccc2)on1` [CA098] are 21.6% and 14.7%.
In the same order, the values of `O=C(O)Cc1ccc(S(=O)(=O)N2CCCC2)s1` [CA099] are 21.7% and 15.6%.
With `CN(C(=O)c1cccs1)c1ccccc1C(=O)O` [CA100], the inhibition at 1.25 µM runs as follows: under setting [1], 16.4%; under setting [2], 10.5%.
Regarding `CN1CCN(c2ccccc2C(=O)O)CC1` [CA101], the inhibition at 1.25 µM runs as follows: under setting [1], 13.5%; under setting [2], 12.2%.
Taken in the same sequence, the figures for `Cn1cc(-c2ocnc2C(=O)O)cn1` [CA102] were 12.6% and 14.3%.
For the compound `NS(=O)(=O)c1ccc(-c2cccc(C(F)(F)F)c2)c(C(=O)O)c1` [CA103], the inhibition at 1.25 µM runs as follows: under setting [1], 11.4%; under setting [2], 12.3%.
Taken in the same sequence, the figures for `O=C(O)c1cnoc1-c1cccs1` [CA104] were 12.4% and 34%.
Taken in the same sequence, the figures for `O=C(O)c1ccc(OCc2ccncc2)cc1` [CA105] were 12.9% and 11.9%.
Taken in the same sequence, the figures for `O=C(O)c1cc(-n2ccnc2)ccn1` [CA106] were 13.6% and 10.8%.
For `O=C(O)C1CCN(Cc2ccc(Cl)s2)CC1` [CA107], the inhibition at 1.25 µM is, setting by setting: under setting [1], 13%; under setting [2], 10.7%.
For the compound `O=C(O)C1CC(=O)N(c2cnccn2)C1` (stereo not shown) [CA108], the inhibition at 1.25 µM was found to be 13.8% under setting [1] and 11.5% under setting [2].
In the same order, the values of `CCC(C(=O)O)n1nnc(-c2ccsc2)n1` (stereo not shown) [CA109] are 10.4% and 12.2%.
Taken in the same sequence, the figures for `Cc1cnn(-c2c(C(=O)O)c(C)nn2C)c1` [CA110] were 12.9% and 15%.
Consider `O=C(O)c1csc(-c2ncccn2)n1` [CA111], for which the inhibition at 1.25 µM reads like this: under setting [1], 12.3%; under setting [2], 14.7%.
Taken in the same sequence, the figures for `O=C(O)c1ncoc1C1CC1` [CA112] were 13.7% and 16.4%.
For `O=C(O)CC(O)(c1nccn1Cc1ccccc1)C(F)(F)F` (stereo not shown) [CA113], the inhibition at 1.25 µM amounted to 9.19% under setting [1] and 16.2% under setting [2].
Taken in the same sequence, the figures for `O=C(O)c1cn(C2CCC2)nn1` [CA114] were 23.9% and 9%.
In the same order, the values of `Cc1ccc(NS(=O)(=O)c2cccc(C(=O)O)c2)cc1` [CA115] are 21.2% and 6.11%.
As to `O=C(O)[1C@@H]1C[1C@H]1c1ccco1` [CA116], the inhibition at 1.25 µM under setting [1] turned out to be 14.9% and the inhibition at 1.25 µM under setting [2] was 4.8%.
In the same order, the values of `Cn1ncc(C(=O)O)c1-n1cccc1` [CA117] are 18.6% and 10%.
In the same order, the values of `O=C(O)C1(n2cnnn2)CC1` [CA118] are 12.1% and 4.09%.
Taken in the same sequence, the figures for `O=C(O)C1CC(OCc2ccccc2)C1` (stereo not shown) [CA119] were 13.6% and 8.14%.
Turning to `O=C(O)C1(n2cnnn2)CCOCC1` [CA120], the inhibition at 1.25 µM reads like this: under setting [1], 11.7%; under setting [2], 5.68%.
In the same order, the values of `O=C(O)c1noc(Cc2ccccc2F)n1` [CA121] are 10.7% and 7.15%.
In the same order, the values of `CCn1cc(S(=O)(=O)N2CCC(C(=O)O)CC2)cn1` [CA122] are 11.4% and 5.98%.
For `O=C(O)[1C@@H]1CCO[1C@H]1c1ccccc1` [CA123], the inhibition at 1.25 µM is, setting by setting: under setting [1], 12.2%; under setting [2], 8.31%.
As to `O=C(O)c1cnnn1-c1ccccc1Cl` [CA124], the inhibition at 1.25 µM under setting [1] is 10.7% and the inhibition at 1.25 µM under setting [2] turned out to be 3.42%.
Consider `O=C(O)c1cnn(-c2ccncc2)c1` [CA125], for which the inhibition at 1.25 µM runs as follows: under setting [1], 7.48%; under setting [2], 7.42%.
In the same order, the values of `O=C(O)c1snnc1-c1ccc(Br)cc1` [CA126] are 9.01% and 10.8%.
In the same order, the values of `Cc1nc(CN2CCCC2C(=O)O)no1` (stereo not shown) [CA127] are 2.84% and 5.46%.
Taken in the same sequence, the figures for `Cc1oc(-c2ccco2)nc1CC(=O)O` [CA128] were 4.02% and 9.87%.
Turning to `O=C(O)c1ccccc1OCc1ccncc1` [CA129], the inhibition at 1.25 µM by setting is: under setting [1], 8.78%; under setting [2], 10.2%.
In the same order, the values of `COc1ccc(N2CCN(C(C)C(=O)O)CC2)cc1` (stereo not shown) [CA130] are 7.09% and 7.3%.
Taken in the same sequence, the figures for `Cc1cc(C)c(C(=O)O)c(OCC2CCCCC2)n1` [CA131] were 9.41% and 31.3%.
In the same order, the values of `O=C(O)c1ccc(S(=O)(=O)NC2CC2)cc1` [CA132] are 7.6% and 4.16%.
On to `O=C(O)c1cc(-c2ccc(Cl)cc2)oc1C(F)(F)F` [CA133], for which the inhibition at 1.25 µM reads like this: under setting [1], 11%; under setting [2], 11.8%.
In the same order, the values of `O=C(O)c1cccc(S(=O)(=O)Nc2ccc(Cl)cc2)c1` [CA134] are 10% and 11.6%.
In the same order, the values of `O=C(O)c1ccn(-c2ncc(C(F)(F)F)cc2Cl)n1` [CA135] are 4.28% and 10.4%.
On to `O=C(O)Cc1coc(-c2ccccc2)n1` [CA136], for which the inhibition at 1.25 µM by setting is: under setting [1], 8.08%; under setting [2], 12.8%.
Turning to `Cn1cc(NS(=O)(=O)c2ccsc2C(=O)O)cn1` [CA137], the inhibition at 1.25 µM runs as follows: under setting [1], 3.97%; under setting [2], 20.1%.
For the compound `O=C(O)CC(NS(=O)(=O)c1ccccc1)c1ccc(Cl)cc1` (stereo not shown) [CA138], the inhibition at 1.25 µM is, setting by setting: under setting [1], 22.3%; under setting [2], 5.42%.
Regarding `O=C(O)c1cccc(S(=O)(=O)NCC2CCCO2)c1` (stereo not shown) [CA139], the inhibition at 1.25 µM runs as follows: under setting [1], 14.3%; under setting [2], -1.37%.
As to `O=C(O)c1c[nH]nc1-c1cccnc1` [CA140], the inhibition at 1.25 µM by setting is: under setting [1], 9.15%; under setting [2], 7.35%.
In the case of `O=C(O)Cc1ccc(NS(=O)(=O)c2c(Cl)cccc2Cl)cc1` [CA141], the inhibition at 1.25 µM was found to be 9.99% under setting [1] and 2.69% under setting [2].
For the compound `O=C(O)c1csc(-c2cnccn2)n1` [CA142], the inhibition at 1.25 µM reads like this: under setting [1], 8.67%; under setting [2], 6.39%.
